In brackets after ≈: the same amount, converted by molar mass.
Experiments:
[1] = test system: Candida albicans; experiment: Compound was tested for the effective concentration against Candida albicans for 24 hr; type: functional, organism-based
[2] = biological target: T1, Glycylpeptide N-tetradecanoyltransferase (Candida albicans (strain SC5314 / ATCC MYA-2876) (Yeast), UniProt P30418); experiment: Compound was tested for the inhibition potency against Candida albicans N-myristoyltransferase (NMT) using peptide substrate GNAASARR-NH2 at its apparent Km and myristoylCoA at 1 uM
T1 sequence (P30418 whole entry): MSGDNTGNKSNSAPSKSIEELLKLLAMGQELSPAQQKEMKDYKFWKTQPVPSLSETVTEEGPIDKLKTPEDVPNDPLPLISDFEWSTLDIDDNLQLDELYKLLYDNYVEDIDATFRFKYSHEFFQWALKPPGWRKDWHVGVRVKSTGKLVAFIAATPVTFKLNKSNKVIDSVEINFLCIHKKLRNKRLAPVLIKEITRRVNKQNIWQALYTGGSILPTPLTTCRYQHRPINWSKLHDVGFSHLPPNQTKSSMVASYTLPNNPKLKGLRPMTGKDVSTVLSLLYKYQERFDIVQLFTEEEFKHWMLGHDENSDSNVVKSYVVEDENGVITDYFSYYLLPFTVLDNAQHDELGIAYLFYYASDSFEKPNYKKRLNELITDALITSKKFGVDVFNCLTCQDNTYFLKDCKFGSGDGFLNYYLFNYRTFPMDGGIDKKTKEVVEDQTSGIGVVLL

[3] = biological target: T2, Peptide N-myristoyltransferase (Homo sapiens, UniProt P30419+O60551); experiment: Compound was tested for the inhibition potency against human N-myristoyltransferase (NMT) using peptide substrate GNAASARR-NH2 at its apparent Km and myristoylCoA at 1 uM; type: protein assay
T2 sequence (P30419 whole entry): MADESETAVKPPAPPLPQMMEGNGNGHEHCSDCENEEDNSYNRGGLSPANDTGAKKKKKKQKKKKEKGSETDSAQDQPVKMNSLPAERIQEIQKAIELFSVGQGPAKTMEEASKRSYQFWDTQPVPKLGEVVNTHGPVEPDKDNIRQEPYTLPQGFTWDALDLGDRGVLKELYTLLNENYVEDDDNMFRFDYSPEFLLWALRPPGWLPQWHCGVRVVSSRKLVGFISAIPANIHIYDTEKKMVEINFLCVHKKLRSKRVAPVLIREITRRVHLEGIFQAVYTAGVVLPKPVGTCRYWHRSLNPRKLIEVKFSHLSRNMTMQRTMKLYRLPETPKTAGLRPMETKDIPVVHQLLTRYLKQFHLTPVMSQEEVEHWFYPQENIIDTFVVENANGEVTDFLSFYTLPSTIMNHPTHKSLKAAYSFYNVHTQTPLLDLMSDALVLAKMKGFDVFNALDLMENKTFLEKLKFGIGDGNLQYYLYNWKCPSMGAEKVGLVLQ
T2 sequence (O60551 whole entry): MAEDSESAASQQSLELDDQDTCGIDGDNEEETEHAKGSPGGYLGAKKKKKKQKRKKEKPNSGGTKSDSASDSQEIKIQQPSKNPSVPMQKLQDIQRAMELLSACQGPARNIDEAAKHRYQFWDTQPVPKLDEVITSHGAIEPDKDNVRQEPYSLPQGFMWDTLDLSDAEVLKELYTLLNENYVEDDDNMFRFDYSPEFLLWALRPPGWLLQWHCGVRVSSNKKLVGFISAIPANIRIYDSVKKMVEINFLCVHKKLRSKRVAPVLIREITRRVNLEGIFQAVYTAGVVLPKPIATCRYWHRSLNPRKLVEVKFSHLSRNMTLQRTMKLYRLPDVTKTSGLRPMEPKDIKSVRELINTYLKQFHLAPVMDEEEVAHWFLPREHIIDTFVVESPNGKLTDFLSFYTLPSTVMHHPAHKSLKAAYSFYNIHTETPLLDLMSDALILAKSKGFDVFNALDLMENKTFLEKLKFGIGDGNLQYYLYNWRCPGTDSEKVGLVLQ

[4] = biological target: T2, Peptide N-myristoyltransferase; experiment: compound was tested for the inhibition potency against human N-myristoyltransferase (NMT) using peptide substrate GNAASARR-NH2 at its apparent Km and myristoylCoA at 1 uM; type: protein assay
[5] = biological target: T1, Glycylpeptide N-tetradecanoyltransferase; experiment: compound was tested for the inhibition potency against Candida albicans N-myristoyltransferase (NMT) using peptide substrate GNAASARR-NH2 at its apparent Km and myristoylCoA at 1 uM
[6] = test system: Candida albicans; experiment: compound was tested for the effective concentration against Candida albicans for 24 hr; type: functional, organism-based
[7] = test system: Candida albicans; experiment: the fungicidal activity against Candida albicans was reported; type: functional
[8] = biological target: T1, Glycylpeptide N-tetradecanoyltransferase; experiment: The Compound was tested for the inhibition potency against Candida albicans N-myristoyltransferase (NMT) and reported as apparent Ki

Compound | EC50 [1] | IC50 [2] | IC50 [3] | IC50 [4] | IC50 [5] | EC50 [6] | MFC [7] | Ki [8]
Cc1nccn1CCCCc1ccc(CC(=O)N[C@H](CO)Cc2ccc(OCCC3CCCCC3)c(CCCN)c2)cc1 | 56 µM | 29.3 µM | 62.3 µM |  |  |  |  | 
Cc1nccn1CCCCc1ccc(CC(=O)N[C@H](CO)Cc2ccc(OCCC3CCCCC3)c(CCCCN)c2)cc1 |  |  |  | 64 µM | 20 µM | 49 µM | 150 µM (≈ 90.4 µg/mL) | 
Cc1nccn1CCCCc1ccc(CC(=O)N[C@@H](CO)Cc2ccc(OCCC3CCCCC3)c(CCCN)c2)cc1 |  |  |  | 6.5 µM | 17.5 µM | 77 µM | 250 µM (≈ 147 µg/mL) | 
H-ALYASKLS-NH2 |  |  |  |  |  |  |  | 15.3 µM
